How the values were obtained:
[1] = tested on: P. aeruginosa expressing IMP-1, efflux− (MB9799); experiment: Efflux: concentration of MBL inhibitor which restores susceptibility to imipenem; assay type: cell-based, Pseudomonas aeruginosa; settings: imipenem at 2 μg/mL, in the presence of a class A, C, D serine β-lactamase inhibitor closely related to relebactam
Excerpt: (§1) The strain background is Pseudomonas aeruginosa PAO1.

[2] = tested on: P. aeruginosa expressing IMP-1, efflux+ (MB9798); assay type: cell-based, Pseudomonas aeruginosa; settings: for P. aeruginosa expressing IMP-1, efflux+ (MB9798) MITC95: imipenem at 2 μg/mL, in the presence of a class A, C, D serine β-lactamase inhibitor closely related to relebactam; for Efflux ratio: ratio MITC95 PA_9798/MITC95 PA_9799
Excerpt: as §1

[3] = tested on: Serratia marcescens expressing IMP-1 (CL5741); assay type: cell-based; settings: with imipenem 1 μg/ml, 95% inhibition of bacterial growth; for Serratia marcescens MITC95: IMP-1 (CL5741)
Procedure, shortened: (§2)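 Clinical strains grown overnight on blood agar, then diluted 1:100 in 1.1× CAMHB and exposed to test compound with imipenem at 1 μg/ml. Incubation was 22–24 h at 35° C; growth was read by absorbance to find the compound concentration restoring imipenem susceptibility.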

[4] = tested on: Escherichia coli expressing NDM-1 (CLB30005, CLB30016); assay type: cell-based; settings: with imipenem 1 μg/ml, 95% inhibition of bacterial growth; for Escherichia coli MITC95: NDM-1 (CLB30016)
Procedure, shortened: as §2

[5] = tested on: Klebsiella pneumoniae expressing VIM-1 (IHMA599644); assay type: cell-based; settings: with imipenem 1 μg/ml, 95% inhibition of bacterial growth; for Klebsiella pneumoniae MITC95: VIM-1 (IHMA599644)
Procedure, shortened: as §2

VIM-1 = VIM-1 (Pseudomonas aeruginosa (strain ATCC 15692 / DSM 22644 / CIP 104116 / JCM 14847 / LMG 12228 / 1C / PRS 101 / PAO1), UniProt A0A0F7KYQ8); experiment: biochemical; settings: CCF2-FA substrate, 2 hours at 25° C
Procedure, shortened: (§3)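 Fluorescence assay of metallo-β-lactamase activity using CCF2-FA, a cephalosporin-linked 7-hydroxycoumarin–fluorescein substrate. Inhibitor, enzyme and substrate were incubated together for 2 hours at 25° C. IC50 came from a 4-parameter fit of inhibition versus inhibitor concentration.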

NDM-1 = NDM-1 (Klebsiella pneumoniae, UniProt C7C422); experiment: biochemical; assay type: biochemical; settings: CCF2-FA substrate, 2 hours at 25° C; read-out: NDM-1 IC50
NDM-1, sequence (C7C422 whole entry, looked up, species assumed): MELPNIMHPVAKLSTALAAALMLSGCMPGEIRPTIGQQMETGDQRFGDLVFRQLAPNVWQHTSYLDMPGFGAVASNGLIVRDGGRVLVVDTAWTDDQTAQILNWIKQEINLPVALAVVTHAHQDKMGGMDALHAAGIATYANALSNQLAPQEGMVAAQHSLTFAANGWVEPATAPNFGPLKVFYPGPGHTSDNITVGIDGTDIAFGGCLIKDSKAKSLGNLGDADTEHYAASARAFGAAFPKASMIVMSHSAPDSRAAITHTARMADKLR
Procedure, shortened: as §3

IMP-1 = IMP-1 (Serratia marcescens, UniProt P52699); experiment: biochemical; assay type: biochemical; settings: CCF2-FA substrate, 2 hours at 25° C; read-out: IMP-1 IC50
IMP-1, sequence (P52699 whole entry, looked up, species assumed): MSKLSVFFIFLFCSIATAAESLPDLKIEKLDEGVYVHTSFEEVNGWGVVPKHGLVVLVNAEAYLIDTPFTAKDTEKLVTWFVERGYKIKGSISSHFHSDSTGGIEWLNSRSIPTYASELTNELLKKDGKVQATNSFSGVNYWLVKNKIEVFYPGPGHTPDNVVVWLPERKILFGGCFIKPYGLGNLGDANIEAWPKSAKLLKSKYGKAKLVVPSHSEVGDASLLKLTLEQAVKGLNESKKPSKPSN
Procedure, shortened: as §3

| SMILES | P. aeruginosa expressing IMP-1, efflux− (MB9799) MITC95 [1] | P. aeruginosa expressing IMP-1, efflux+ (MB9798) MITC95 [2] | Efflux ratio [2] | Serratia marcescens expressing IMP-1 (CL5741) MITC95 [3] | Escherichia coli expressing NDM-1 (CLB30016) MITC95 [4] | Klebsiella pneumoniae expressing VIM-1 (IHMA599644) MITC95 [5] | IC50 (VIM-1) | IC50 (NDM-1) | IC50 (IMP-1) | Serratia marcescens MITC95 [3] | Escherichia coli MITC95 [4] | Klebsiella pneumoniae MITC95 [5] |
| --- | --- | --- | --- | --- | --- | --- | --- | --- | --- | --- | --- | --- |
| NCCS(=O)(=O)c1ccc(-c2cccc3ccc(N)nc23)c(-c2nn[nH]n2)c1S(N)(=O)=O [Example 71, 6-(2-aminoethylsulfonyl)-3-(2-aminoquinolin-8-yl)-2-(2H-tetrazol-5-yl)benzenesulfonamide] | 0.7813 µM | 0.7813 µM | 1.00 | 0.7813 µM | 0.3906 µM | 1.563 µM | 0.315 nM | 0.115 nM | 0.129 nM | – | – | – |
| NCCS(=O)(=O)c1ccc(-c2cnn3c2CCC3)c(-c2nnn[nH]2)c1S(N)(=O)=O.O=C(O)C(F)(F)F [Example 152, 2-((4-(5,6-dihydro-4H-pyrrolo[1,2-b]pyrazol-3-yl)-2-sulfamoyl-3-(1H-tetrazol-5-yl)phenyl)sulfonyl)ethanaminium 2,2,2-trifluoroacetate] | 1.563 µM | 50 µM | 31.99 | 6.25 µM | 3.125 µM | 6.25 µM | 2.01 nM | 5.83 nM | 4.79 nM | – | – | – |
| CCOC(=O)N1CCC(S(=O)(=O)c2ccc(-c3cccc4nc(N)[nH]c34)c(-c3nn[nH]n3)c2S(N)(=O)=O)CC1 [Example 46, ethyl 4-(4-(2-amino-3H-benzo[d]imidazol-4-yl)-2-sulfamoyl-3-(2H-tetrazol-5-yl)phenylsulfonyl)piperidine-1-carboxylate] | 3.125 µM | 200 µM | 64.00 | 25 µM | 6.25 µM | 25 µM | 0.378 nM | 0.445 nM | 2.15 nM | – | – | – |
| NCCS(=O)(=O)c1ccc(-c2cccc(N3CCS(=O)(=O)CC3)c2)c(-c2nnn[nH]2)c1S(N)(=O)=O.O=C(O)C(F)(F)F [Example 158, 2-((3′-(1,1-dioxidothiomorpholino)-3-sulfamoyl-2-(1H-tetrazol-5-yl)-[1,1′-biphenyl]-4-yl)sulfonyl)ethanaminium 2,2,2-trifluoroacetate] | 3.125 µM | 200 µM | 64.00 | 12.5 µM | 12.5 µM | 25 µM | 7.08 nM | 16.6 nM | 6.27 nM | – | – | – |
| NS(=O)(=O)c1c(S(=O)(=O)C2CNC2)ccc(-c2ccc(NS(=O)(=O)C3CC3)cc2)c1-c1nn[nH]n1 [Example 244, 4-(Azetidin-3-ylsulfonyl)-4′-(cyclopropanesulfonamido)-2-(2H-tetrazol-5-yl)-[1,1′-biphenyl]-3-sulfonamide] | 1.563 µM | 6.25 µM | 4.00 | 3.125 µM | 3.125 µM | 6.25 µM | 0.112 nM | 0.156 nM | 0.144 nM | – | – | – |
| NS(=O)(=O)c1c(S(=O)(=O)C2CNC2)ccc(-c2cnc3ccoc3c2)c1-c1nnn[nH]1.O=C(O)C(F)(F)F [Example 101, 3-((4-(furo[3,2-b]pyridin-6-yl)-2-sulfamoyl-3-(1H-tetrazol-5-yl)phenyl)sulfonyl)azetidin-1-ium 2,2,2-trifluoroacetate] | 1.563 µM | 12.5 µM | 8.00 | 3.125 µM | 3.125 µM | 6.25 µM | 0.399 nM | 0.905 nM | 1.48 nM | – | – | – |
| Nc1nc2cccc(-c3ccc(SC4CCNCC4)c(S(N)(=O)=O)c3-c3nn[nH]n3)c2[nH]1 [Example 3, 3-(2-amino-3H-benzo[d]imidazol-4-yl)-6-(piperidin-4-ylthio)-2-(2H-tetrazol-5-yl)benzenesulfonamide] | 2.563 µM | 25 µM | 9.75 | 6.25 µM | 0.125 µM | 25 µM | 79.5 nM | 3.27 nM | 109 nM | – | – | – |
| NS(=O)(=O)c1c(S(=O)(=O)C2CNC2)ccc(-c2cnc3ccccc3c2)c1-c1nnn[nH]1.O=C(O)C(F)(F)F [Example 98, 3-((4-(quinolin-3-yl)-2-sulfamoyl-3-(1H-tetrazol-5-yl)phenyl)sulfonyl)azetidin-1-ium 2,2,2-trifluoroacetate] | 1.563 µM | 25 µM | 15.99 | 3.125 µM | 3.125 µM | 3.125 µM | 0.241 nM | 0.4 nM | 1.97 nM | – | – | – |
| NC(=O)c1ccc(-c2ccc(S(=O)(=O)C3CNC3)c(S(N)(=O)=O)c2-c2nnn[nH]2)c(N)n1 [Example 67, 6-Amino-5-(4-(azetidin-3-ylsulfonyl)-3-sulfamoyl-2-(1H-tetrazol-5-yl)phenyl)picolinamide] | 1.563 µM | 3.125 µM | 2.00 | 3.125 µM | 1.563 µM | 3.125 µM | 0.333 nM | 0.376 nM | 1.32 nM | – | – | – |
| Nc1nnc(-c2cccc(-c3ccc(S(=O)(=O)C4CNC4)c(S(N)(=O)=O)c3-c3nnn[nH]3)c2)o1 [Example 344, 3′-(5-Amino-1,3,4-oxadiazol-2-yl)-4-(azetidin-3-ylsulfonyl)-2-(1H-tetrazol-5-yl)-[1,1′-biphenyl]-3-sulfonamide] | 1.563 µM | 25 µM | 15.99 | – | – | – | 0.268 nM | 0.47 nM | 1.7 nM | 3.125 µM | 3.125 µM | 6.25 µM |
| NS(=O)(=O)c1c(S(=O)(=O)C2CCNCC2)ccc(-c2cccc3c2CNC3=O)c1-c1nn[nH]n1 [Example 318, 3-(1-oxoisoindolin-4-yl)-6-(piperidin-4-ylsulfonyl)-2-(2H-tetrazol-5-yl)benzenesulfonamide] | 6.25 µM | 25 µM | 4.00 | – | – | – | 0.517 nM | 1.95 nM | 27.1 nM | 25 µM | 12.5 µM | 12.5 µM |
| NS(=O)(=O)c1c(S(=O)(=O)CCO)ccc(-c2cccc3c2ccc[n+]3[O-])c1-c1nn[nH]n1 [Example 320, 5-(4-((2-hydroxyethyl)sulfonyl)-3-sulfamoyl-2-(2H-tetrazol-5-yl)phenyl)quinoline 1-oxide] | 6.25 µM | 25 µM | 4.00 | – | – | – | 0.208 nM | 0.939 nM | 1.06 nM | 25 µM | 50 µM | 12.5 µM |
| Nc1cc2cccc(-c3ccc(S(=O)(=O)C4CNC4)c(S(N)(=O)=O)c3-c3nn[nH]n3)c2cn1 [Example 35, 3-(3-aminoisoquinolin-8-yl)-6-(azetidin-3-ylsulfonyl)-2-(2H-tetrazol-5-yl)benzenesulfonamide] | 1.563 µM | 1.563 µM | 1.00 | 1.563 µM | 1.563 µM | 6.25 µM | 0.243 nM | 0.0695 nM | 0.503 nM | – | – | – |
